According to patent publication EP1571449A1 (priority 2004, dated 2005):
Where two headings read alike, the source gives them in different places.

Tests used:
PrP^C = PrP^C (Homo sapiens, UniProt P04156); assay type: binding
plasma PrP^C = plasma PrP^C (Homo sapiens, UniProt P04156); conditions: plasma mixed with 400 µM CuCl2, copper containing gradient, 16 h at 100,000 x g, 4 °C

[Cl][Mn][Cl] [MnCl2]
effect on detection of bound prion proteins (assay sensitivity) (PrP^C): improvement in sensitivity
times higher concentration needed for the same signal increasing effect as compared to zinc (PrP^C): about 12 times

O=S(=O)([O-])[O-].[Cu+2] [CuSO4]
dose relation of the effect on assay sensitivity (PrP^C): dose-related effects on the assay sensitivity
effect on detection of bound prion proteins (assay sensitivity) (PrP^C): improvement in sensitivity
increase in sensitivity (PrP^C): more than 3000 fold
plasma dilution at which twice the backgound signal was detected (PrP^C): 156250 times diluted

O=C(O)CN(CCN(CC(=O)O)CC(=O)O)CC(=O)O [EDTA, reference compound]
PrP^C detection, assay 4 (PrP^C): blocking effects
PrP^C detection, assay 5 (PrP^C): complete inhibition of the copper effects
PrP^C detection, assay 6 (PrP^C): the copper-induced changes of PrP^C disappeared
PrP^C detection, assay 7 (PrP^C): improved detection of PrP^C was observed
effect of EDTA on the copper-induced assay sensitivity increase (PrP^C): dose-related reduction of copper-induced assay sensitivity increase

OO [H2O2, hydrogen peroxide]
dose relation of the effect on assay sensitivity (PrP^C): dose-related effects on the assay sensitivity
effect on detection of bound prion proteins (assay sensitivity) (PrP^C): enhanced the detection of bound prion proteins

O=S(=O)([O-])[O-].[Zn+2] [ZnSO4]
effect on detection of bound prion proteins (assay sensitivity) (PrP^C): improvement in sensitivity

[Cl][Cu][Cl] [CuCl2]
migration pattern of PrP^C immunoreactivity in sucrose gradient (plasma PrP^C): the high molecular weight peak, present in EDTA plasma, disappeared
PrP^C detection, assay 2 (PrP^C): much more improved detection of PrP^C
PrP^C detection, assay 3 (PrP^C): slightly worse detection of PrP^C as compared to assay 2
effect on detection of bound prion proteins (assay sensitivity) (PrP^C; 15 min): improvement in sensitivity

O=CO [formic acid]
effect on detection of bound prion proteins (assay sensitivity) (PrP^C): had no effect on the assay
